Literature values, collected in patent US6703034B2, “Neem oil microemulsion without cosurfactants or alcohols and a process to form the same” (University of Florida, priority 2000, dated 2004).

Key:
Insects = details: treated during larval and pupal stages
certain insects = details: quantities as low as

For `C/C=C(\C)C(=O)O[C@H]1C[C@@H](OC(C)=O)[C@@]2(C(=O)OC)CO[C@H]3[C@@H](O)[C@@](C)([C@]45O[C@@]4(C)[C@H]4C[C@@H]5O[C@@H]5OC=C[C@@]54O)[C@H]4[C@]1(CO[C@]4(O)C(=O)OC)[C@@H]32` [azadirachtin], the “time to death of treated insects” value (Insects) is given as 3 to 14 days and the “quantity at which potent (repels certain insects)” value (certain insects) is given as 1 ppm.
